According to patent publication US6677302B2, “Compositions and methods for the treatment of viral disorders” (The Trustees of Boston University, priority 1996, dated 2004):
Where two headings read alike, the source gives them in different places. Marks after values point to notes of the source that are not given here.

What was measured:
K562 = experiment: DNA fragmentation by flow cytometry; type: cell-based, human; settings: FIGS. 4 and 5
Excerpt: It has been shown that sodium butyrate can induce apoptosis in human tumors or tumor cell lines (L. A. Noorduyn et al., Histopathology 21:59, 1992).

[1] = tested on: Fibroblasts (mouse BALB/c-3T3); experiment: MIC on cell proliferation, 7 days in culture; type: cell-based
Description: (§1) The ability of arginine butyrate to induce differentiation has been evaluated and is measured by inhibition of growth, in some of the neoplastic cell types previously reported to be sensitive to (sodium) butyric acid, and found arginine butyrate to be as potent as butyric acid. We have also extended that work to additional cell types and found Arginine Butyrate to induce differentiation in these new cell types. Table 1 lists the cell types tested and the minimum inhibitory concentration (MIC) of sodium butyrate (NaB) and arginine butyrate (ArgB) on these cell lines. The MIC is the lowest dose that prevents all growth over the 7 days that the cells are maintained in culture, that is the minimum dose that prevents an increase in cell number. […] The […] of ArgB and NaB were equivalent on all cell lines tested.

[2] = tested on: Fibroblasts (normal human); experiment: MIC on cell proliferation, 7 days in culture; type: cell-based; settings: lowest dose that prevents all growth over 7 days
Description: as §1

Choriocarcinoma (JAR) = experiment: MIC on cell proliferation, 7 days in culture; type: cell-based, human
Description: as §1

[3] = tested on: Colonic Adenocarcinoma (HT29); experiment: MIC on cell proliferation, 7 days in culture; type: cell-based, human
Description: as §1

Erythroleukemia (K562) = experiment: MIC on cell proliferation, 7 days in culture; type: cell-based, human
Description: as §1

Gastric Carcinoma (AGS) = experiment: MIC on cell proliferation, 7 days in culture; type: cell-based, human
Description: as §1

Myeloid Leukemia (HL60) = experiment: MIC on cell proliferation, 7 days in culture; type: cell-based, human
Description: as §1

Osteosarcoma (HOS) = experiment: MIC on cell proliferation, 7 days in culture; type: cell-based, human
Description: as §1

Rhabdomyosarcoma = experiment: MIC on cell proliferation, 7 days in culture; type: cell-based, human
Description: as §1

[4] = Clinical toxicity in patients; type: in vivo, human; settings: adults; IV infusion of similar doses
Description: Clinical experience with butyrates have been performed in children with acute myelogenous leukemia in Israel, and in children with neuroblastoma (K. Prasad, Life Sci. 27:1351-58, 1980). […] Eleven pediatric patients and twelve adults with β-hemoglobinopathies were treated with IV arginine butyrate at a starting dose of 500 mg/kg/day for 2-7 weeks. If no side effects were noted, the rate was increased by 250 mg/kg/day to a final rate of 1500 mg/kg/day in 4 patients, and 2000 mg/kg/day in 2 patients. […] This rise in BUN returned to normal within 12 hours of discontinuation of drug, and is thought to be secondary to effect of arginine upon ureagenesis. […] Peak serum levels of butyrate ranged between 0.04-0.05 mM, and butyrate was not detectable 15 minutes after infusion was discontinued. Plasma arginine levels were also rapidly cleared, with a T1/2 of 15 minutes, and baseline arginine levels were reached within 12 hours after discontinuation of infusion.
Three patients with refractory neoplasms (breast, melanoma, adenocarcinoma, of unknown primary) have been enrolled and completed 1-2 cycles of arginine butyrate as a dose of 500 mg/kg/day over 6-8 hours for 10 days.
Three patients (with breast cancer, bowel cancer or Hodgkins disease) have completed two cycles of arginine butyrate at a dose of 750 mg/kg/day for 10 days. […] Otherwise, there was no other objective measures of organ progressed after treatment was topped. […] There was a further resolution of the disease during the second cycle. Disease progression was noted one month after second cycle was completed. At 1000 mg/kg/day, 3 patients have been enrolled on study.
An inter-group dose-escalation study is being conducted in patients with refractory malignancies. There are 3 patients per group with the dose levels starting at 500 mg/kg/day, and increasing by 250 mg/kg/day per group, if toxicity permits. Doses are given by 8 hour IV infusion, daily, for 5 days times 2 weeks, with weekends off, for a total of 10 days of treatment per cycle.

[5] = children with acute myelogenous leukemia or neuroblastoma; 0.5-1.5 g/kg/day for 14 days and 10 g/kg/day IV; cited from earlier work
MCF-7 (breast cancer) = experiment: Survival fraction after 72 hours exposure (MTT assay); type: cell-based, human
Description: (§2) Growth inhibition was measured by the MTT assay. Survival fraction is calculated from at least 3 experiments, and differences in survival fraction are statistically significant P<0.05, using the Paired Two-Sample For Means T-Test. […] PC-3=prostate cancer; A549=non-small cell cancer; OvCar=ovarian cancer; CaCo=colon cancer; MCF-7=breast cancer; and SW900=non-small cell lung cancer.

OvCar (ovarian cancer) = experiment: as above; type: cell-based, human
Description: as §2

PC-3 (prostate cancer) = experiment: as above; type: cell-based, human
Description: as §2

[6] = tested on: SW900 (non-small cell lung cancer); experiment: as above; type: cell-based, human
Description: as §2

[7] = tested on: A549 (non-small cell cancer); experiment: as above; type: cell-based, human
Description: (§3) Growth inhibition was measured by the MTT assay. […] PC-3=prostate cancer; A549=non-small cell cancer; OvCar=ovarian cancer; CaCo=colon cancer; MCF-7=breast cancer; and SW900=non-small cell lung cancer.

CaCo (colon cancer) = experiment: as above; type: cell-based, human; settings: 72 hour
Description: as §3

[8] = tested on: post-transplant EBV-induced lymphomas; experiment: Compassionate treatment of post-transplant EBV-induced lymphomas; type: in vivo, human; settings: patient one; GCV for 2 weeks before arginine butyrate
Excerpt: Finally, two patients with post-transplant EBV-induced lymphomas have been treated on a compassionate basis with IRB approval. Each patient is summarized below.
Patient one was a person, 2 months post lung transplant. They were receiving cyclosporin to prevent impending rejection. They developed massive lymphadenopathy in mediastinum and hilum, with progressive respiratory failure. They were biopsy positive for EBV, and the tumor cells were monoclonal and of donor origin.
They had been off all therapy, except ganciclovir, for 3 weeks when they started arginine butyrate at 1,000 mg/kg/day. […] They eventually died from Aspergillus infection.
The second patient was a person, 4 months post-allogeneic bone marrow transplant for leukemia. They were receiving cyclosporin to prevent rejection. They developed cervical, mediastinal and abdominal lymphadenopathy, with brain metastases. A biopsy was positive for EBV and tumor cells were monoclonal confirming the diagnosis of LPD.
They had been treated with and had no response to XRT, CHOP, or α-IFN plus gamma globulin. They had been off all therapy for 2 weeks and was cachectic, too weak to ambulate, paraplegic, in constant pain and had been admitted for terminal care, when they started arginine butyrate at 1,000 mg/kg/day and ganciclovir.

[9] = tested on: EBV+ and EBV− cell lines (X50-7, Akata, HPB-ALL, Nalm-6); experiment: Growth of EBV+ and EBV− cell lines; type: cell-based, human; settings: both EBV+ and EBV− cell lines
Excerpt: In some experiments sodium was used instead of arginine to neutralize butyric acid. […] Cell lines used were X50-7, a latent EBV+ B-cell lymphoma; Akata, a producer EBV+ Burkitt's lymphoma; HPB-ALL, a T-cell line; and Nalm-6, an EBV− B-cell line. Growth curves for X50-7 cells in different concentrations of sodium butyrate are shown in FIG. 8b and the growth curves for HPB-ALL cells in different concentrations of sodium butyrate are shown in FIG. 8c.

breast and colon lines = experiment: Enhancement of cytotoxicity of other chemotherapeutic agents by arginine butyrate; settings: evaluated with arginine butyrate
Description: Other chemotherapeutic agents with non-overlapping mechanisms of antiproliferative activity such as 5-fluorouracil, taxol and interferon alpha have been evaluated with arginine butyrate.

[10] = Table 4, 0.1 A (0.1 μg/ml), 72 hour
[11] = Table 4, 0.5 A (0.5 μg/ml), 72 hour
[12] = Table 3, 1 CP (1.0 μg/ml), 72 hours
[13] = Table 3, 2 CP (2.0 μg/ml), 72 hours

Compound: CC[C@@]1(O)C(=O)OCc2c1cc1n(c2=O)Cc2cc3ccccc3nc2-1 [camptothecin]
- apoptotic activity on addition of arginine butyrate (K562): increased their apoptotic activity

Compound: CCCC(=O)[O-].[Na+] [NaB, sodium butyrate, reference compound]
- MIC [1]: >5,000 μM
- MIC [2]: >5,000 μM
- MIC (Choriocarcinoma (JAR)): 156 µM
- MIC [3]: 2,000 μM
- MIC (Erythroleukemia (K562)): >5,000 μM
- MIC (Gastric Carcinoma (AGS)): 2,000 μM
- MIC (Myeloid Leukemia (HL60)): 78 µM
- MIC (Osteosarcoma (HOS)): 312 µM
- MIC (Rhabdomyosarcoma): 156 µM
- toxic side effects [4]: no toxic side effects
- toxic side effects [5]: without toxic side effects

Compound: COc1cc([C@@H]2c3cc4c(cc3[C@@H](O[C@@H]3O[C@@H]5CO[C@@H](C)O[C@H]5[C@H](O)[C@H]3O)[C@H]3COC(=O)[C@H]23)OCO4)cc(OC)c1O [etoposide]
- apoptotic activity on addition of arginine butyrate (K562): increased their apoptotic activity

Compound: COc1cccc2c1C(=O)c1c(O)c3c(c(O)c1C2=O)C[C@@](O)(C(=O)CO)C[C@@H]3O[C@H]1C[C@H](N)[C@H](O)[C@H](C)O1 [A, adriamycin]
- Survival Fraction (MCF-7 (breast cancer); Table 4, 0.1 A (0.1 μg/ml)): 0.73*
- Survival Fraction (MCF-7 (breast cancer); Table 4, 0.5 A (0.5 μg/ml)): 0.69*
- Survival Fraction (OvCar (ovarian cancer); [10]): 0.83*
- Survival Fraction (OvCar (ovarian cancer); [11]): 0.81*
- Survival Fraction (PC-3 (prostate cancer); [10]): 0.72*
- Survival Fraction (PC-3 (prostate cancer); [11]): 0.68*
- Survival Fraction ([6]; Table 4, 0.1 A (0.1 μg/ml)): 0.82*
- Survival Fraction ([6]; Table 4, 0.5 A (0.5 μg/ml)): 0.76*
- Survival Fraction [7, 10]: 0.59*
- Survival Fraction [7, 11]: 0.59*
- Survival Fraction (CaCo (colon cancer); Table 4, 0.1 A (0.1 μg/ml)): 0.68*
- Survival Fraction (CaCo (colon cancer); Table 4, 0.5 A (0.5 μg/ml)): 0.62*
- apoptotic activity on addition of arginine butyrate (K562): increased their apoptotic activity

Compound: Nc1nc(O)c2ncn(COC(CO)CO)c2n1 [GCV, ganciclovir, reference compound]
- tumor response [8]: showed no response
- levels generally cytocidal [9]: above 30 μM

Compound: C[C@@H]1C[C@@H]([C@H](O)CC2CC(=O)NC(=O)C2)C(=O)[C@@H](C)C1 [cyclohexamide]
- apoptotic activity on addition of arginine butyrate (K562): increased their apoptotic activity

Compound: CC(=O)O[C@H]1C(=O)[C@@]2(C)[C@H]([C@H](OC(=O)c3ccccc3)[C@]3(O)C[C@H](OC(=O)[C@H](O)[C@@H](NC(=O)c4ccccc4)c4ccccc4)C(C)=C1C3(C)C)[C@]1(OC(C)=O)CO[C@@H]1C[C@@H]2O [taxol]
- concentration of agent at which enhancement of cytotoxicity was observed (breast and colon lines): exceeding 10 mM

Compound: O=P1(N(CCCl)CCCl)NCCCO1 (stereo not shown) [cyclophosphamide]
- apoptotic activity on addition of arginine butyrate (K562): Lack of enhancement

Compound: N.N.[Cl][Pt][Cl] [CP, cisplatin]
- Survival Fraction (OvCar (ovarian cancer); [12]): 0.91
- Survival Fraction (OvCar (ovarian cancer); [13]): 0.45*
- Survival Fraction (PC-3 (prostate cancer); [12]): 0.92
- Survival Fraction (PC-3 (prostate cancer); [13]): 0.49*
- Survival Fraction [7, 12]: 0.77*
- Survival Fraction [7, 13]: 0.54*
